By IC50 is commonly meant the concentration that gives 50% inhibition. A low value points to higher potency.

This passage reports IC50 results from ChEMBL document CHEMBL2311538, “Discovery of a class of novel tankyrase inhibitors that bind to both the nicotinamide pocket and the induced pocket” (J Med Chem, 2013).

Test [1] deals with T1, Poly [ADP-ribose] polymerase tankyrase-2 (Homo sapiens, UniProt Q9H2K2).
T1 sequence (Q9H2K2 whole entry): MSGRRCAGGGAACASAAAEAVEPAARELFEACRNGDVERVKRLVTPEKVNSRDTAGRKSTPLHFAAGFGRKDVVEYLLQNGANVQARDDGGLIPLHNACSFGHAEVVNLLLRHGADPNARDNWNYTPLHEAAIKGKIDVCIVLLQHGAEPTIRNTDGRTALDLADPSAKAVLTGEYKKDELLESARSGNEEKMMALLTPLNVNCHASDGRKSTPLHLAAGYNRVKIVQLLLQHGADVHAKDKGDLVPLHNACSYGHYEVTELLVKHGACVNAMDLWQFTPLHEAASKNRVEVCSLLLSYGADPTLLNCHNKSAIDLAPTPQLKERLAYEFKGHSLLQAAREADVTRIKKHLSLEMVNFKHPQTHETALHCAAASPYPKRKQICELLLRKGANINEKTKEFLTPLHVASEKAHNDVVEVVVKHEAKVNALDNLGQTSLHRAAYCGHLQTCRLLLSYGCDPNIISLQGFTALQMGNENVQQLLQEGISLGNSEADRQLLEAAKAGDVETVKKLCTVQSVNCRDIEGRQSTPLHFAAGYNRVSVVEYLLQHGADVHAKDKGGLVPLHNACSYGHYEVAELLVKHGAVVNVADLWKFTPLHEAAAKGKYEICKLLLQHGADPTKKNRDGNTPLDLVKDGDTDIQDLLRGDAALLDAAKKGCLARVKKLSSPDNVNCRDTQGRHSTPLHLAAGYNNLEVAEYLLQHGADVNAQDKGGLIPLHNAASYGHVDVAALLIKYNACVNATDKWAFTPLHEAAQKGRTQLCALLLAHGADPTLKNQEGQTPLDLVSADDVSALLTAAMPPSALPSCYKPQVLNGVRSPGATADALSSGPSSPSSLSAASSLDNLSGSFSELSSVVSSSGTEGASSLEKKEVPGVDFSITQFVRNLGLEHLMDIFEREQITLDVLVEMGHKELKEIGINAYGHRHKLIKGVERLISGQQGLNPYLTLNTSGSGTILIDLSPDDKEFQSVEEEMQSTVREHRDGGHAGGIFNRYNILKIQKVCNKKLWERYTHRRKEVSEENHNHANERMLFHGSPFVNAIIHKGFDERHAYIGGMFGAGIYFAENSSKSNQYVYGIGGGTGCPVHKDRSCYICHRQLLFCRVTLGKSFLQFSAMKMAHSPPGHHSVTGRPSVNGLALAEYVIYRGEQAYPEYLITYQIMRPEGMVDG
Nature of the test: Inhibition of N-terminal His6-tagged human TNKS2 (946 to 1162 amino acid residues) after 60 mins by autoparsylation assay.

For test [2], the target named is T2, Poly [ADP-ribose] polymerase tankyrase-1 (Homo sapiens, UniProt O95271).
T2 sequence (O95271 whole entry): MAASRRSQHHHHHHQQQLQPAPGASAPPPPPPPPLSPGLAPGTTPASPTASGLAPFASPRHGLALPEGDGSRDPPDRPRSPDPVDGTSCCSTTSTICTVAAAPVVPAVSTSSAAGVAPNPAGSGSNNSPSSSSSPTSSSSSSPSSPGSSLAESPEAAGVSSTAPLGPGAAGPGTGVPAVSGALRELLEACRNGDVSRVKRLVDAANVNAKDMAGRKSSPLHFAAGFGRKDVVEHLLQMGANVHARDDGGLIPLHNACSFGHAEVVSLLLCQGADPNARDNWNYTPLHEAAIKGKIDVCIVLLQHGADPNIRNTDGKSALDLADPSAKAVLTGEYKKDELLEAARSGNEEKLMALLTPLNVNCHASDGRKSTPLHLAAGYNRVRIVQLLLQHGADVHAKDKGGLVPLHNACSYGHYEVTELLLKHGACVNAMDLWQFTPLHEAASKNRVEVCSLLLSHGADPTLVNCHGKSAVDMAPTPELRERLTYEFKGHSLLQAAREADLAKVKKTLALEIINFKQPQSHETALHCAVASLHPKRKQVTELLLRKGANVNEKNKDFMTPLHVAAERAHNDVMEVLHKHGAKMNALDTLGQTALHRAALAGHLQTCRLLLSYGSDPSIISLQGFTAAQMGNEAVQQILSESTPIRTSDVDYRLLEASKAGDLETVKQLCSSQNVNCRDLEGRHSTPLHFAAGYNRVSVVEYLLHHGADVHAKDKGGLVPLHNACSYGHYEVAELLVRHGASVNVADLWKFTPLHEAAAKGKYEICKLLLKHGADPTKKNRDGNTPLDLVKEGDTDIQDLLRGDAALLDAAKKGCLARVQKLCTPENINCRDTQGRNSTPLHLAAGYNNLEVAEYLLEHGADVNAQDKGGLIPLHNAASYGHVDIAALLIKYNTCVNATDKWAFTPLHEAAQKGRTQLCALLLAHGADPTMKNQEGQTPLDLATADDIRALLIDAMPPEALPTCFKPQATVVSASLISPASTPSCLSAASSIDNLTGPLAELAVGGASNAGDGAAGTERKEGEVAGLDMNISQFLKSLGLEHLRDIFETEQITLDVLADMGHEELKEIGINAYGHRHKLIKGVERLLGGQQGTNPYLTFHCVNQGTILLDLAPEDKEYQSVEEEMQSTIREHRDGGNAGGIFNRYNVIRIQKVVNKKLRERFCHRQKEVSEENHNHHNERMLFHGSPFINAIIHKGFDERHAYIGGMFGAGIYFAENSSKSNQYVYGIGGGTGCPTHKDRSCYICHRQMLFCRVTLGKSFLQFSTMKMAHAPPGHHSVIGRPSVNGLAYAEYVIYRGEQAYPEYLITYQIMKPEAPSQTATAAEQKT

The next test deals with T3, Tankyrase 1/2 (Homo sapiens, UniProt Q9H2K2+O95271).
T3 sequence (Q9H2K2 whole entry): T1 sequence (Q9H2K2 whole entry)
T3 sequence (O95271 whole entry): T2 sequence (O95271 whole entry)
The note with it: hek293.

Test [3] addresses Poly [ADP-ribose] polymerase 2 (Homo sapiens, UniProt Q9UGN5). Nature of the test: Inhibition of PARP2 (unknown origin).

Poly [ADP-ribose] polymerase 2, sequence (Q9UGN5 whole entry): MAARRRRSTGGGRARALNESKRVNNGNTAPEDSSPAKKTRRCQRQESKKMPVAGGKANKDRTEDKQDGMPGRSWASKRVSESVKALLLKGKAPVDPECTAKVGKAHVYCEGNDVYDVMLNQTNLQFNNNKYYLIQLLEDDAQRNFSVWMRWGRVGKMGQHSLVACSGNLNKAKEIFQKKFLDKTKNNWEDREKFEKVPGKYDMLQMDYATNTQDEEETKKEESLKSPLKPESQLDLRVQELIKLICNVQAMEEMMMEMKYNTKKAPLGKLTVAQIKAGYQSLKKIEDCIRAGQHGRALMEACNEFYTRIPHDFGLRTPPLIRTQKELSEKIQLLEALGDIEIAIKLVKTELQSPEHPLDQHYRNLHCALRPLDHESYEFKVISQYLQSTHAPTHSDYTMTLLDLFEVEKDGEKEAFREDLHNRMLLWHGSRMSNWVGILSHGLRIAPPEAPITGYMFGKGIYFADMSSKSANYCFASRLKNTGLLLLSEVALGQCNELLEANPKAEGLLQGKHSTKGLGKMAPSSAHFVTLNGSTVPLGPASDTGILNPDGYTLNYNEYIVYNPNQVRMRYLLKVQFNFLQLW

Take `Cc1ccnc2c(NC(=O)c3ccc(N4C(=O)[C@@H]5[C@H](C4=O)[C@@H]4C=C[C@H]5C4)cc3)cccc12`: the IC50 in test [1] came to 36 nM; in test [2] it was 192 nM; against Tankyrase 1/2, 163000 nM.
For `COc1ccccc1NC(=O)c1ccc(NC(=O)CCc2nc3ccccc3c(=O)[nH]2)cc1`, the IC50 in test [3] was 931 nM; in test [2], 8 nM.
